Test system: NOMO1
Test: cell viability relative to DMSO control; higher = less cytotoxic
Details: 48 h
Procedure, shortened: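 NOMO1 or SEM (500 cells/well) or P12-Ichikawa (1000 cells/well) leukemia cells were adapted for at least four passages in each medium. They were seeded in 1536-well plates (5 μl) and pin-dosed with library compounds in DMSO over an 11-point threefold series, 47 μM to 0.79 nM. CellTiter-Glo One luminescence was read after 48 h at 37°C. Viability is the per-plate percentage relative to DMSO wells, with cell-free wells as background.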

[1] = RPMI 5 mM glucose + 10% FBS, 0.000781 µM
[2] = RPMI 5 mM glucose + 10% FBS, 0.00234 µM
[3] = RPMI 5 mM glucose + 10% FBS, 0.00702 µM
[4] = RPMI 5 mM glucose + 10% FBS, 0.0211 µM
[5] = RPMI 5 mM glucose + 10% FBS, 0.0632 µM
[6] = RPMI 5 mM glucose + 10% FBS, 0.19 µM
[7] = RPMI 5 mM glucose + 10% FBS, 0.569 µM
[8] = RPMI 5 mM glucose + 10% FBS, 1.71 µM
[9] = RPMI 5 mM glucose + 10% FBS, 5.12 µM
[10] = RPMI 5 mM glucose + 10% FBS, 15.4 µM
[11] = RPMI 5 mM glucose + 10% FBS, 46.1 µM
[12] = RPMI 5 mM glucose + 10% dialyzed FBS, 0.000781 µM
[13] = RPMI 5 mM glucose + 10% dialyzed FBS, 0.00234 µM
[14] = RPMI 5 mM glucose + 10% dialyzed FBS, 0.00702 µM
[15] = RPMI 5 mM glucose + 10% dialyzed FBS, 0.0211 µM
[16] = RPMI 5 mM glucose + 10% dialyzed FBS, 0.0632 µM
[17] = RPMI 5 mM glucose + 10% dialyzed FBS, 0.19 µM
[18] = RPMI 5 mM glucose + 10% dialyzed FBS, 0.569 µM
[19] = RPMI 5 mM glucose + 10% dialyzed FBS, 1.71 µM
[20] = RPMI 5 mM glucose + 10% dialyzed FBS, 5.12 µM
[21] = RPMI 5 mM glucose + 10% dialyzed FBS, 15.4 µM
[22] = RPMI 5 mM glucose + 10% dialyzed FBS, 46.1 µM
[23] = HPLM + 10% dialyzed FBS, 0.000781 µM
[24] = HPLM + 10% dialyzed FBS, 0.00234 µM
[25] = HPLM + 10% dialyzed FBS, 0.00702 µM
[26] = HPLM + 10% dialyzed FBS, 0.0211 µM
[27] = HPLM + 10% dialyzed FBS, 0.0632 µM
[28] = HPLM + 10% dialyzed FBS, 0.19 µM
[29] = HPLM + 10% dialyzed FBS, 0.569 µM
[30] = HPLM + 10% dialyzed FBS, 1.71 µM
[31] = HPLM + 10% dialyzed FBS, 5.12 µM
[32] = HPLM + 10% dialyzed FBS, 15.4 µM
[33] = HPLM + 10% dialyzed FBS, 46.1 µM

`COC1=CC=C2CN(C)CC[C@@]34\C=C/[C@H](O)C[C@@H]3OC1=C24` was tested, and the cell viability [1] was 128%, the cell viability [2] was 124% and the cell viability [3] was 120%. For the same compound, the cell viability [4] was 112%, the cell viability [5] was 124% and the cell viability [6] was 130%. The cell viability [7] was 118%, the cell viability [8] was 123% and the cell viability [9] was 126%. The cell viability [10] was 108%, the cell viability [11] was 104% and the cell viability [12] was 126%. The cell viability [13] was 121%, the cell viability [14] was 118% and the cell viability [15] was 119%. For the same compound, the cell viability [16] was 118%, the cell viability [17] was 129% and the cell viability [18] was 120%. It also gave a cell viability [19] of 115%, a cell viability [20] of 110% and a cell viability [21] of 108%. The cell viability [22] was 113%.

For `Cc1ncc([N+](=O)[O-])n1CC(C)O` (stereo not drawn), the cell viability [23] was 96.1%, the cell viability [24] was 100% and the cell viability [25] was 117%. It also gave a cell viability [26] of 114%, a cell viability [27] of 119% and a cell viability [28] of 110%. It also gave a cell viability [29] of 111%, a cell viability [30] of 116% and a cell viability [31] of 117%. For the same compound, the cell viability [32] was 120%, the cell viability [33] was 108% and the cell viability [1] was 100%. It also gave a cell viability [2] of 123%, a cell viability [3] of 106% and a cell viability [4] of 106%. It also gave a cell viability [5] of 113%, a cell viability [6] of 118% and a cell viability [7] of 132%. The cell viability [8] was 117%, the cell viability [9] was 117% and the cell viability [10] was 105%. The cell viability [11] was 113%, the cell viability [12] was 101% and the cell viability [13] was 107%. For the same compound, the cell viability [14] was 95.3%, the cell viability [15] was 96.4% and the cell viability [16] was 113%. It also gave a cell viability [17] of 116%, a cell viability [18] of 110% and a cell viability [19] of 110%. For the same compound, the cell viability [20] was 115%, the cell viability [21] was 115% and the cell viability [22] was 101%.

For `O=C1NC(=O)/C(=C/c2ccc(-c3ccc(F)cc3O)o2)S1`, the cell viability [23] was 106%, the cell viability [24] was 126% and the cell viability [25] was 125%. For the same compound, the cell viability [26] was 130%, the cell viability [27] was 127% and the cell viability [28] was 114%. For the same compound, the cell viability [29] was 125%, the cell viability [30] was 91.8% and the cell viability [31] was 103%. The cell viability [32] was 82.7%, the cell viability [33] was 72.9% and the cell viability [1] was 113%. It also gave a cell viability [2] of 108%, a cell viability [3] of 104% and a cell viability [4] of 114%. For the same compound, the cell viability [5] was 112%, the cell viability [6] was 105% and the cell viability [7] was 103%. It also gave a cell viability [8] of 94.7%, a cell viability [9] of 95.7% and a cell viability [10] of 92.7%. The cell viability [11] was 84.9%, the cell viability [12] was 112% and the cell viability [13] was 117%. It also gave a cell viability [14] of 114%, a cell viability [15] of 103% and a cell viability [16] of 113%. It also gave a cell viability [17] of 116%, a cell viability [18] of 91.6% and a cell viability [19] of 93.9%. The cell viability [20] was 91.7%, the cell viability [21] was 75.8% and the cell viability [22] was 66.9%.

Work on `OC1=CC2=C(C(=C1)O)C(=O)\C(=C(/O2)C3=CC(=C(O)C=C3)O)O` yielded a cell viability [23] of 97.5%, a cell viability [24] of 104% and a cell viability [25] of 102%. The cell viability [26] was 112%, the cell viability [27] was 125% and the cell viability [28] was 117%. The cell viability [29] was 116%, the cell viability [30] was 99.7% and the cell viability [31] was 118%. It also gave a cell viability [32] of 110%, a cell viability [33] of 109% and a cell viability [1] of 98.1%. It also gave a cell viability [2] of 105%, a cell viability [3] of 115% and a cell viability [4] of 90.8%. For the same compound, the cell viability [5] was 110%, the cell viability [6] was 108% and the cell viability [7] was 106%. For the same compound, the cell viability [8] was 110%, the cell viability [9] was 95.4% and the cell viability [10] was 90.5%. For the same compound, the cell viability [11] was 97.9%, the cell viability [12] was 98.2% and the cell viability [13] was 98%. It also gave a cell viability [14] of 109%, a cell viability [15] of 107% and a cell viability [16] of 104%. For the same compound, the cell viability [17] was 118%, the cell viability [18] was 110% and the cell viability [19] was 104%. It also gave a cell viability [20] of 107%, a cell viability [21] of 106% and a cell viability [22] of 102%.

In the case of `CC(C)Cc1ccc(C(C)C(=O)O)cc1` (stereo not drawn), the cell viability [23] is reported as 84.6%, the cell viability [24] is reported as 106% and the cell viability [25] is reported as 96.7%. It also gave a cell viability [26] of 115%, a cell viability [27] of 95.6% and a cell viability [28] of 102%. It also gave a cell viability [29] of 90.6%, a cell viability [30] of 102% and a cell viability [31] of 82%. The cell viability [32] was 91.4%, the cell viability [33] was 89.7% and the cell viability [1] was 79.4%. The cell viability [2] was 93.9%, the cell viability [3] was 94.3% and the cell viability [4] was 87.3%. For the same compound, the cell viability [5] was 97.2%, the cell viability [6] was 83.9% and the cell viability [7] was 97.9%. The cell viability [8] was 86.7%, the cell viability [9] was 83.9% and the cell viability [10] was 86.1%. The cell viability [11] was 89.6%, the cell viability [12] was 85.6% and the cell viability [13] was 83%. The cell viability [14] was 77.8%, the cell viability [15] was 85.4% and the cell viability [16] was 72.7%. It also gave a cell viability [17] of 82.2%, a cell viability [18] of 76.5% and a cell viability [19] of 91.6%. It also gave a cell viability [20] of 81.9%, a cell viability [21] of 80.5% and a cell viability [22] of 82.1%.

`CCOC(=O)/C=C/[C@H](C[C@@H]1CCNC1=O)NC(=O)[C@@H](CC(=O)[C@@H](NC(=O)c1cc(C)on1)C(C)C)Cc1ccc(F)cc1` showed a cell viability [12] of 119%, a cell viability [13] of 124% and a cell viability [14] of 143%. It also gave a cell viability [15] of 118%, a cell viability [16] of 132% and a cell viability [17] of 118%. For the same compound, the cell viability [18] was 130%, the cell viability [19] was 131% and the cell viability [20] was 144%. For the same compound, the cell viability [21] was 155% and the cell viability [22] was 125%.

`Nc1ncnc2c1nc(Cl)n2[C@@H]1O[C@H](CO)[C@@H](O)[C@H]1O` showed a cell viability [1] of 116%, a cell viability [2] of 123% and a cell viability [3] of 110%. It also gave a cell viability [4] of 120%, a cell viability [5] of 120% and a cell viability [6] of 113%. For the same compound, the cell viability [7] was 106%, the cell viability [8] was 110% and the cell viability [9] was 118%. It also gave a cell viability [10] of 108% and a cell viability [11] of 14.5%.

With `CC(NCCc1ccc(O)cc1)C(O)c1ccc(O)cc1` (stereo not drawn) the cell viability [23] was 124%, the cell viability [24] was 123% and the cell viability [25] was 121%. It also gave a cell viability [26] of 111%, a cell viability [27] of 124% and a cell viability [28] of 120%. It also gave a cell viability [29] of 127%, a cell viability [30] of 110% and a cell viability [31] of 118%. The cell viability [32] was 97.5%, the cell viability [33] was 80% and the cell viability [1] was 113%. The cell viability [2] was 106%, the cell viability [3] was 107% and the cell viability [4] was 113%. It also gave a cell viability [5] of 102%, a cell viability [6] of 96.2% and a cell viability [7] of 101%. For the same compound, the cell viability [8] was 104%, the cell viability [9] was 105% and the cell viability [10] was 94.8%. The cell viability [11] was 95%, the cell viability [12] was 93.4% and the cell viability [13] was 114%. The cell viability [14] was 109%, the cell viability [15] was 99.7% and the cell viability [16] was 110%. The cell viability [17] was 114%, the cell viability [18] was 102% and the cell viability [19] was 93.8%. It also gave a cell viability [20] of 91.3%, a cell viability [21] of 93.5% and a cell viability [22] of 77.3%.

`CNC(=O)CN1CCC(Oc2cc3c(Nc4cccc(Cl)c4F)ncnc3cc2OC)CC1` showed a cell viability [12] of 116%, a cell viability [13] of 122% and a cell viability [14] of 138%. It also gave a cell viability [15] of 133%, a cell viability [16] of 141% and a cell viability [17] of 144%. The cell viability [18] was 52.7%, the cell viability [19] was 41.8% and the cell viability [20] was 32.1%. The cell viability [21] was 33.7% and the cell viability [22] was 31.7%.

For `CCN(c1ccccc1)c1cc(NC)[n+](C)c(C)n1`, the cell viability [23] was 121%, the cell viability [24] was 123% and the cell viability [25] was 109%. It also gave a cell viability [26] of 120%, a cell viability [27] of 130% and a cell viability [28] of 115%. The cell viability [29] was 116%, the cell viability [30] was 123% and the cell viability [31] was 107%. For the same compound, the cell viability [32] was 109%, the cell viability [33] was 111% and the cell viability [1] was 115%. For the same compound, the cell viability [2] was 104%, the cell viability [3] was 106% and the cell viability [4] was 110%. The cell viability [5] was 101%, the cell viability [6] was 104% and the cell viability [7] was 123%. It also gave a cell viability [8] of 122%, a cell viability [9] of 112% and a cell viability [10] of 95.5%. The cell viability [11] was 103%, the cell viability [12] was 106% and the cell viability [13] was 111%. The cell viability [14] was 112%, the cell viability [15] was 124% and the cell viability [16] was 122%. It also gave a cell viability [17] of 116%, a cell viability [18] of 126% and a cell viability [19] of 113%. It also gave a cell viability [20] of 103%, a cell viability [21] of 108% and a cell viability [22] of 108%.

Source: the supplement of paper PMC11451515
